Measured values: patent publication US20220265657A1, “ADMINISTRATION METHOD AND DOSAGE REGIMEN FOR TREATMENT OF NEURODEGENERATIVE DISEASES USING TRAMETINIB AND MARKERS” (GENUV INC., priority 2019, published 2022)

Tests used:
[1] = system: 5XFAD mice; test: Immunofluorescence staining of Map2, Tau and swollen axons in cortex layer V; assay type: in vivo
Procedure: (§1) Trametinib treatment: Trametinib (Medchemexpress, Monmouth Junction, N.J.) was micronized and suspended in the vehicle containing 5% mannitol, 1.5% hydroxypropyl methylcellulose and 0.2% sodium lauryl sulfate. For pharmacokinetic analysis, 0.05, 0.2 and 0.8 mg/kg of trametinib were orally administered to 7-week-old normal mice (ICR, n=5 per group) as a single administration. […] For studies on the change in pERK expression in normal mice and whole cell RNA sequencing study, 0.1 mg/kg/day of trametinib (in 4% DMSO+96% corn oil) was orally administered to 6-week old C57BL/6 mice (n=3 per group). Mice were sacrificed after 1, 2, 3, or 4 weeks of administration. 5XFAD mice (male, n=7˜10 per group) were divided into vehicle and trametinib treated groups. 12-month old mice received vehicle or 0.1 mg/kg of trametinib for 1 month by oral gavage once a day (These mice are referred to as “13-month old 5XFAD mice” in the Examples). […] Blood was obtained after completion of treatment.
(§2) Brains were dissected and analyzed by immunohistochemistry. For paraffin sections, brain hemispheres were embedded sagittally in paraffin and prepared into sections of […] slices. […] The sections were counterstained with DAPI. […] NeuN-positive and active caspase 3-positive cells from cortex layer V were counted using Icy micromanager program (Institut Pasteur, Paris, France).

[2] = system: 5XFAD mice; test: Immunofluorescence of active caspase 3, LC3 and LAMP1 in cortex layer V; assay type: in vivo; conditions: 5XFAD mice cortex
Procedure: as §1, §2

[3] = Pharmacokinetic analysis, brain and plasma concentration after single oral administration; assay type: in vivo; conditions: normal mice
Procedure: as §1

[4] = system: neurons and neural stem cells (NSCs); conditions: in vitro, even in the presence of cytotoxic oligomers of Aβ1-42; cited from earlier work

## CC(=O)Nc1cccc(-n2c(=O)n(C3CC3)c(=O)c3c(Nc4ccc(I)cc4F)n(C)c(=O)c(C)c32)c1 [trametinib]
[1]; 5XFAD mice, compared to vehicle-administered group
  bulb-like swollen axons: significantly reduced
[1]; cortex of 8-month-old and 13-month-old 5XFAD mice
  dendritic and axonal lengths (Map2, Tau): recovery of dendritic and axonal lengths
[2]
  LC3-LAMP1 co-stained cells: Increased LC3-LAMP1 co-stained cells
  apoptosis (active caspase 3): reduced apoptosis
[3]; ICR, mouse, brain and plasma, 0.8 mg/kg, highest dose group, read-out: brain/plasma exposure ratio (AUC)
  Kp: 0.477
[3]
  penetration of the blood-brain barrier (BBB): confirmed to penetrate the blood-brain barrier (BBB)
[4]
  neuronal differentiation and survival of neurons and NSCs: effective in inducing neuronal differentiation and promoting survival of neurons and neural stem cells (NSCs)
